Results from PubChem BioAssay AID256 (DTP/NCI, 2004).
“And” between values parts separate entries of the source, which are not always exact repeats. Equal entries are not always repeated. Inconclusive results and toxic doses are left out. How the source made its calls: active means survival T/C of 150% or more; inactive means T/C below 125% in these data.

Tested on: CD2F1 mice, L1210 leukemia ip, survival T/C
Test: NCI In Vivo Anticancer Drug Screen. Data for tumor model L1210 Leukemia (intraperitoneal) in CD2F1 (CDF1) mice
Conditions: endpoint: mean survival time, higher = longer survival
Outline: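 Transplantable tumor in mice; compound-treated vs vehicle-treated groups. Read-out = treated/control ratio of the measured endpoint.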

[1] = dose: 100.0 mg/kg/injection, schedule: Q04DX002 (ip), vehicle: saline with Tween-80
[2] = dose: 200.0 mg/kg/injection, schedule: Q04DX002 (ip), vehicle: saline with Tween-80
[3] = dose: 400.0 mg/kg/injection, schedule: Q04DX002 (ip), vehicle: saline with Tween-80
[4] = dose: 25.0 mg/kg/injection, schedule: Q01DX009 (ip), vehicle: saline with Tween-80
[5] = dose: 50.0 mg/kg/injection, schedule: Q01DX009 (ip), vehicle: saline with Tween-80
[6] = dose: 100.0 mg/kg/injection, schedule: Q01DX009 (ip), vehicle: saline with Tween-80
[7] = dose: 200.0 mg/kg/injection, schedule: Q01DX009 (ip), vehicle: saline with Tween-80
[8] = dose: 100.0 mg/kg/injection, schedule: Q04DX003 (ip), vehicle: saline with Tween-80
[9] = dose: 200.0 mg/kg/injection, schedule: Q04DX003 (ip), vehicle: saline with Tween-80
[10] = dose: 400.0 mg/kg/injection, schedule: Q01DX009 (ip), vehicle: saline with Tween-80
[11] = dose: 400.0 mg/kg/injection, schedule: Q04DX003 (ip), vehicle: saline with Tween-80
[12] = dose: 100.0 mg/kg/injection, schedule: Q01DX001 (ip), vehicle: saline with Tween-80
[13] = dose: 200.0 mg/kg/injection, schedule: Q01DX001 (ip), vehicle: saline with Tween-80
[14] = dose: 400.0 mg/kg/injection, schedule: Q01DX001 (ip), vehicle: saline with Tween-80

Measured: T/C

CN(C)/C=C\C(=O)O
inactive: [1] 102 % of control | [2] 102 % of control | [3] 98 % of control

OC(Cc1ccc2ccccc2n1)C(Cl)(Cl)Cl (stereo not drawn)
inactive: dose: 100.0 mg/kg/injection, schedule: Q04DX003 (ip), vehicle: alcohol 95 % of control | dose: 200.0 mg/kg/injection, schedule: Q04DX003 (ip), vehicle: alcohol 95 % of control | dose: 400.0 mg/kg/injection, schedule: Q04DX003 (ip), vehicle: alcohol 101 % of control

COC(=O)CCCNC(C)C
inactive: dose: 12.5 mg/kg/injection, schedule: Q01DX009 (ip), vehicle: water 101 % of control | dose: 25.0 mg/kg/injection, schedule: Q01DX009 (ip), vehicle: water 95 % of control | dose: 50.0 mg/kg/injection, schedule: Q01DX009 (ip), vehicle: water 102 % of control | dose: 100.0 mg/kg/injection, schedule: Q01DX009 (ip), vehicle: water 95 % of control | dose: 200.0 mg/kg/injection, schedule: Q01DX009 (ip), vehicle: water 102 % of control

Oc1cc2c(cc1O)-c1[nH]ncc1CC2
inactive: [1] 115 % of control | [2] 103 % of control | [3] 98 % of control

C(=C\CN(Cc1ccccc1)Cc1ccccc1)/CN(Cc1ccccc1)Cc1ccccc1
inactive: dose: 100.0 mg/kg/injection, schedule: Q01DX009 (ip), vehicle: Klucel (hydroxypropylcellulose) (HPC) 95 % of control | dose: 200.0 mg/kg/injection, schedule: Q01DX009 (ip), vehicle: Klucel (hydroxypropylcellulose) (HPC) 97 % of control

O=c1[nH]c(C(F)(F)F)nc2c1nc1n2CCC1
inactive: [4] 102 % of control | [5] 111 % of control | [6] 103 % of control

Oc1c(Cl)cc(Cl)cc1/C=N/NC(=S)Nc1cc(C(F)(F)F)cc(C(F)(F)F)c1
inactive: dose: 6.25 mg/kg/injection, schedule: Q01DX009 (ip), vehicle: olive oil, sesame oil, peanut oil 102 % of control | dose: 12.5 mg/kg/injection, schedule: Q01DX009 (ip), vehicle: olive oil, sesame oil, peanut oil 100 % of control | dose: 25.0 mg/kg/injection, schedule: Q01DX009 (ip), vehicle: olive oil, sesame oil, peanut oil 100 % of control | dose: 50.0 mg/kg/injection, schedule: Q01DX009 (ip), vehicle: olive oil, sesame oil, peanut oil 102 % of control | dose: 100.0 mg/kg/injection, schedule: Q01DX009 (ip), vehicle: olive oil, sesame oil, peanut oil 102 % of control | dose: 200.0 mg/kg/injection, schedule: Q01DX009 (ip), vehicle: olive oil, sesame oil, peanut oil 94 % of control

COC(=O)c1ccc[n+](CC(=O)c2ccccc2)c1
inactive: [5] 101 % of control | [6] 96 % of control | [7] 98 % of control

CCC(=O)C(CC)(c1ccc(OC(C)=O)cc1)c1ccc(OC(C)=O)cc1
inactive: dose: 100.0 mg/kg/injection, schedule: Q04DX003 (ip), vehicle: saline 94 % of control | dose: 200.0 mg/kg/injection, schedule: Q04DX003 (ip), vehicle: saline 96 % of control | dose: 400.0 mg/kg/injection, schedule: Q04DX003 (ip), vehicle: saline 96 % of control

NC(=O)NNC(=O)C(Cl)(Cl)Cl
inactive: dose: 100.0 mg/kg/injection, schedule: Q04DX002 (ip), vehicle: saline 103 % of control

C[N+]1(C)CCC(=O)CC1
inactive: [6] 101 % of control

CC1(C)C2CCC1(C(=O)O)CC2
inactive: [5] 100 % of control | [6] 100 % of control | [8] 92 % of control | [7] 97 % of control | [9] 95 % of control

CS(=O)(=O)OC(C(Br)CBr)C(OS(C)(=O)=O)C(Br)CBr (stereo not drawn)
inactive: dose: 100.0 mg/kg/injection, schedule: Q01DX001 (ip), vehicle: Klucel (hydroxypropylcellulose) (HPC) 87 % of control | dose: 200.0 mg/kg/injection, schedule: Q01DX001 (ip), vehicle: Klucel (hydroxypropylcellulose) (HPC) 90 % of control | dose: 400.0 mg/kg/injection, schedule: Q01DX001 (ip), vehicle: Klucel (hydroxypropylcellulose) (HPC) 88 % of control

CN(C)CCOc1ccccn1
inactive: [6] 93 % of control | [8] 92 % of control | [7] 95 % of control | [9] 87 % of control | [10] 87 % of control | [11] 87 % of control

N.N.O=C([O-])/C=C\C(=O)[O-].[Pt]
inactive: dose: 2.5 mg/kg/injection, schedule: Q04DX003 (ip), vehicle: distilled water + Tween-80 112 % of control | dose: 5.0 mg/kg/injection, schedule: Q04DX003 (ip), vehicle: distilled water + Tween-80 116 % of control | dose: 10.0 mg/kg/injection, schedule: Q04DX003 (ip), vehicle: distilled water + Tween-80 113 % of control | dose: 10.0 mg/kg/injection, schedule: Q04DX003 (ip), vehicle: water 105 % of control | dose: 20.0 mg/kg/injection, schedule: Q04DX003 (ip), vehicle: distilled water + Tween-80 118 % of control | dose: 20.0 mg/kg/injection, schedule: Q04DX003 (ip), vehicle: water 113 % of control | dose: 40.0 mg/kg/injection, schedule: Q04DX003 (ip), vehicle: water 118 % of control

CCCCNC(=O)Oc1ccc(C(=O)OCC)cc1
inactive: [4] 100 % of control | [5] 97 % of control | [6] 97 % of control and 100 % of control | [8] 96 % of control | [9] 96 % of control | [11] 90 % of control

COC(=O)c1cc(Cl)ccc1OCC(=O)Nc1ccccc1
inactive: [12] 90 % of control | [13] 94 % of control | [14] 94 % of control

O=[N+]([O-])c1cc(S(=O)(=O)c2ccc(N3CCOCC3)c([N+](=O)[O-])c2)ccc1N1CCOCC1
inactive: [6] 93 % of control | [7] 101 % of control | [10] 92 % of control

CC(=O)Nc1nnc([N+](=O)[O-])s1
inactive: [8] 95 % of control | [9] 91 % of control | [11] 94 % of control

O=C1NCCC/C1=N/Nc1ccccc1
inactive: dose: 50.0 mg/kg/injection, schedule: Q04DX002 (ip), vehicle: saline with Tween-80 100 % of control | [6] 96 % of control | [1] 108 % of control | [7] 96 % of control | [2] 112 % of control | [10] 91 % of control

O=C1N=c2cc([N+](=O)[O-])c([N+](=O)[O-])cc2=N1
inactive: [12] 97 % of control | [13] 103 % of control | [14] 98 % of control

Cc1nc2[nH]c(=S)[nH]c(=O)c2nc1C
inactive: [8] 97 % of control | [9] 90 % of control | [11] 90 % of control

O=C(CCOP(=O)(N1CC1)N1CC1)OCc1ccccc1
inactive: dose: 2.0 mg/kg/injection, schedule: Q01DX009 (ip), vehicle: water 101 % of control | dose: 3.9 mg/kg/injection, schedule: Q01DX001 (ip), vehicle: Klucel (hydroxypropylcellulose) (HPC) 89 % of control | dose: 4.0 mg/kg/injection, schedule: Q01DX009 (ip), vehicle: water 98 % of control | dose: 7.8 mg/kg/injection, schedule: Q01DX001 (ip), vehicle: Klucel (hydroxypropylcellulose) (HPC) 102 % of control | dose: 8.0 mg/kg/injection, schedule: Q01DX009 (ip), vehicle: water 104 % of control | dose: 15.6 mg/kg/injection, schedule: Q01DX001 (ip), vehicle: Klucel (hydroxypropylcellulose) (HPC) 98 % of control | dose: 16.0 mg/kg/injection, schedule: Q01DX009 (ip), vehicle: water 106 % of control | dose: 31.2 mg/kg/injection, schedule: Q01DX001 (ip), vehicle: Klucel (hydroxypropylcellulose) (HPC) 88 % of control | dose: 32.0 mg/kg/injection, schedule: Q01DX009 (ip), vehicle: water 118 % of control

O=C(CC1CCCCC1)N/N=C/c1cccc([N+](=O)[O-])c1
inactive: [6] 90 % of control | [7] 93 % of control | [10] 90 % of control
